Test results published in ChEMBL document CHEMBL1201862, “PubChem BioAssay data set” (2004).
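Protocol summary: plate cells (96-well), add compound at 5 concentrations, incubate 48 h, interpolate endpoints linearly. Here, GI50 denotes the concentration required for 50% inhibition of growth.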 The source made the active and inactive calls. Cut-off read from the data, not from the text of the source: active = GI50 up to about 1.1 µM and inactive = higher.

Columns and labels:
Assay in all cases: NCI anticancer screen, dose series, 48 h
UACC-62 = system: UACC-62
MDA-MB-231 = system: MDA-MB-231
SF-295 = system: SF-295
NCI/ADR-RES = system: NCI/ADR-RES
SN12C = system: SN12C
KM12 = system: KM12
MDA-MB-435 = system: MDA-MB-435
SNB-19 = system: SNB-19
Malme-3M = system: Malme-3M
UACC-257 = system: UACC-257
RPMI-8226 = system: RPMI-8226
BT-549 = system: BT-549
SW-620 = system: SW-620
RXF 393 = system: RXF 393
HCT-15 = system: HCT-15
ACHN = system: ACHN
Hs-578T = system: Hs-578T
SK-OV-3 = system: SK-OV-3
T47D = system: T47D
A498 = system: A498

| SMILES | GI50 (UACC-62) | GI50 (MDA-MB-231) | GI50 (SF-295) | GI50 (NCI/ADR-RES) | GI50 (SN12C) | GI50 (KM12) | GI50 (MDA-MB-435) | GI50 (SNB-19) | GI50 (Malme-3M) | GI50 (UACC-257) | GI50 (RPMI-8226) | GI50 (BT-549) | GI50 (SW-620) | GI50 (RXF 393) | GI50 (HCT-15) [µM] | GI50 (ACHN) | GI50 (Hs-578T) | GI50 (SK-OV-3) | GI50 (T47D) | GI50 (A498) |
| --- | --- | --- | --- | --- | --- | --- | --- | --- | --- | --- | --- | --- | --- | --- | --- | --- | --- | --- | --- | --- |
| O=C1c2ccccc2-c2nc(-c3cccc([N+](=O)[O-])c3)nnc21 | 9.12 µM (inactive) | 16.6 µM (inactive) | 1.56 µM (inactive) | 13.4 µM (inactive) | 21.4 µM (inactive) | 8 µM (inactive) | 1.97 µM (inactive) | 13.9 µM (inactive) | 17.5 µM (inactive) | 3.24 µM (inactive) | 2.94 µM (inactive) | 19.5 µM (inactive) | 15.8 µM (inactive) | 24.3 µM (inactive) | 15.7 | 3.98 µM (inactive) | 12.4 µM (inactive) | > 100 µM (inactive) | 44.5 µM (inactive) |  |
| O=C(/C=C/c1ccc(-c2ccccc2)cc1)NCc1ccc(C(=O)NCCc2ccccc2)cc1 | > 100 µM (inactive) | 38.1 µM (inactive) | > 100 µM (inactive) | > 100 µM (inactive) | > 100 µM (inactive) | > 100 µM (inactive) | > 100 µM (inactive) | > 100 µM (inactive) | 31.6 µM (inactive) | > 100 µM (inactive) | > 100 µM (inactive) | > 100 µM (inactive) | > 100 µM (inactive) | 24.5 µM (inactive) | > 100 | > 100 µM (inactive) |  | > 100 µM (inactive) | > 100 µM (inactive) | > 100 µM (inactive) |
| CCOC(=O)c1c(SCCN2CCCCC2)n(-c2ccccc2)c(=S)n(-c2ccccc2)c1=O | 25.8 µM (inactive) | 21.2 µM (inactive) | > 100 µM (inactive) | 21.2 µM (inactive) | 19.2 µM (inactive) | 19 µM (inactive) | 16.3 µM (inactive) | > 78.3 µM (inactive) | 16.4 µM (inactive) | 12.4 µM (inactive) | 2.74 µM (inactive) | 16.6 µM (inactive) | 3.79 µM (inactive) | 13 µM (inactive) | 4.29 | 17.7 µM (inactive) | 26.1 µM (inactive) | 36.2 µM (inactive) | 4.6 µM (inactive) |  |
| COC(=O)c1cc(C#Cc2cc(OC)ccc2OC)ccc1OC |  | > 100 µM (inactive) | < 0.01 µM (active) | 47.5 µM (inactive) |  | 43.9 µM (inactive) | 41.3 µM (inactive) | > 100 µM (inactive) | 44.3 µM (inactive) | 37.2 µM (inactive) | 13.9 µM (inactive) | 37.7 µM (inactive) | > 100 µM (inactive) | 21.3 µM (inactive) | 40.3 | 42.7 µM (inactive) | > 100 µM (inactive) | 45.4 µM (inactive) | 2.04 µM (inactive) |  |
| CC(C)CC1NC(=O)CCC(NC(=O)C(Cc2ccc(O)cc2)NC(=O)OCc2ccccc2)C(=O)NC(Cc2ccccc2)C(=O)NC(Cc2ccccc2)NC1=O (stereo not given) | > 100 µM (inactive) | > 100 µM (inactive) | > 100 µM (inactive) | > 100 µM (inactive) | > 100 µM (inactive) | > 100 µM (inactive) | > 100 µM (inactive) | 56.6 µM (inactive) | > 100 µM (inactive) | > 100 µM (inactive) | > 100 µM (inactive) | > 100 µM (inactive) | > 100 µM (inactive) | > 100 µM (inactive) | > 100 | > 100 µM (inactive) | > 100 µM (inactive) | 0.578 µM (active) | > 100 µM (inactive) |  |
| Oc1cc(/C=C/c2ccccc2)nc2cc3c(cc12)OCO3 | 3.19 µM (inactive) | 2.79 µM (inactive) |  | 2.04 µM (inactive) | 6.04 µM (inactive) | 3.99 µM (inactive) | 1.98 µM (inactive) | 3.78 µM (inactive) |  | 22.1 µM (inactive) | 0.724 µM (active) | 5.73 µM (inactive) | 6.37 µM (inactive) |  | 3.01 | 10.9 µM (inactive) | 3.78 µM (inactive) | 4.63 µM (inactive) | 3.28 µM (inactive) | 4.2 µM (inactive) |
| COc1cc2c(c(O)c1OC)C(O)C1CCC(=O)N1C2c1ccc2c(c1)OCO2 (stereo not given) | > 100 µM (inactive) | > 100 µM (inactive) | > 100 µM (inactive) | > 100 µM (inactive) | > 100 µM (inactive) | > 100 µM (inactive) | > 100 µM (inactive) | > 100 µM (inactive) | > 100 µM (inactive) | > 100 µM (inactive) |  | > 100 µM (inactive) | > 100 µM (inactive) | > 100 µM (inactive) | > 100 | > 100 µM (inactive) |  | > 100 µM (inactive) | > 100 µM (inactive) | > 100 µM (inactive) |
| O=C(Cc1ccccc1)NNc1nc(NNC(=O)c2ccncc2)nc(Nc2cccc(Cl)c2)n1 | > 10 µM (inactive) | > 10 µM (inactive) |  | > 10 µM (inactive) | > 10 µM (inactive) | > 10 µM (inactive) |  |  | > 10 µM (inactive) | > 10 µM (inactive) | > 10 µM (inactive) | > 10 µM (inactive) | > 10 µM (inactive) |  | > 10 |  | > 10 µM (inactive) | > 10 µM (inactive) | > 10 µM (inactive) |  |
| Cc1ccc(S(=O)(=O)NC(=O)NC(Cc2ccc(O)c(O)c2)C(=O)O)cc1 (stereo not given) | > 100 µM (inactive) | > 100 µM (inactive) | > 100 µM (inactive) | > 100 µM (inactive) | > 100 µM (inactive) | > 100 µM (inactive) | > 100 µM (inactive) | > 100 µM (inactive) | > 100 µM (inactive) | > 100 µM (inactive) | 55.7 µM (inactive) | > 100 µM (inactive) | 24.9 µM (inactive) | 14 µM (inactive) | > 100 | > 100 µM (inactive) |  |  | > 100 µM (inactive) | > 100 µM (inactive) |
| CC(Cn1c2c(c3cc(O)ccc31)CCc1ccc(O)cc1-2)N(C)C (stereo not given) | 15.8 µM (inactive) | 26 µM (inactive) | 18.2 µM (inactive) | 20.2 µM (inactive) | 29.4 µM (inactive) | 15.9 µM (inactive) | 17.9 µM (inactive) | 17.8 µM (inactive) | 14.5 µM (inactive) | 19.9 µM (inactive) | 38.3 µM (inactive) | 16.3 µM (inactive) | 20.3 µM (inactive) | 22.1 µM (inactive) | 13.9 | 15.8 µM (inactive) | 17.1 µM (inactive) | 25.2 µM (inactive) |  | 26.3 µM (inactive) |
| C[n+]1ccc2/c(=C\C#N)c3ccccc3n21 | 34.8 µM (inactive) |  | 33.7 µM (inactive) | > 100 µM (inactive) | 27.9 µM (inactive) | 19.2 µM (inactive) | 23.3 µM (inactive) | 4.27 µM (inactive) | 17.1 µM (inactive) | < 0.01 µM (active) | 11.8 µM (inactive) | 16.6 µM (inactive) | 35.1 µM (inactive) | 38.1 µM (inactive) | > 100 | 39.2 µM (inactive) |  | 30.6 µM (inactive) | 5.65 µM (inactive) |  |
| c1ccc2c(c1)ccn2CCc1c[nH]c2ccccc12 | > 10 µM (inactive) | > 10 µM (inactive) | > 10 µM (inactive) | > 10 µM (inactive) | > 10 µM (inactive) | > 10 µM (inactive) | > 10 µM (inactive) | > 10 µM (inactive) | > 10 µM (inactive) | > 10 µM (inactive) | > 10 µM (inactive) | > 10 µM (inactive) | > 10 µM (inactive) | 9.31 µM (inactive) | > 10 | > 10 µM (inactive) | > 10 µM (inactive) | > 10 µM (inactive) | > 10 µM (inactive) |  |
| CCCCCCCCCCCCCOCCOCCOCCCCC(O)CCCCCCCCCC1=C[C@H](C)OC1=O (stereo not given in full) | 20 µM (inactive) | 22.4 µM (inactive) | 7.21 µM (inactive) | 10 µM (inactive) | 21.4 µM (inactive) | 19.1 µM (inactive) | 16.9 µM (inactive) | 20.7 µM (inactive) |  | 13.2 µM (inactive) | 1.96 µM (inactive) | 11.1 µM (inactive) | 16.4 µM (inactive) | 20.1 µM (inactive) | 19.1 | 28.6 µM (inactive) | 14.9 µM (inactive) | 31.8 µM (inactive) | 16.3 µM (inactive) |  |
| CCN(CC)CCCNc1nc2ccccc2[n+]([O-])n1 | > 100 µM (inactive) | > 100 µM (inactive) | > 100 µM (inactive) | > 100 µM (inactive) | > 100 µM (inactive) | > 100 µM (inactive) | > 100 µM (inactive) | > 100 µM (inactive) | > 100 µM (inactive) | > 100 µM (inactive) | > 100 µM (inactive) | > 100 µM (inactive) | > 100 µM (inactive) | > 100 µM (inactive) | > 100 | > 100 µM (inactive) |  |  | > 100 µM (inactive) | > 100 µM (inactive) |
| CCCCn1c2c(n(CCCC)c1=[Se])-c1c(n(CCCC)c(=[Se])n1CCCC)S[Se][Se]S2 | 17.8 µM (inactive) | 14.5 µM (inactive) | 4.55 µM (inactive) | 19.5 µM (inactive) | 24.6 µM (inactive) | 27.2 µM (inactive) | 49.9 µM (inactive) | 17 µM (inactive) | 3.52 µM (inactive) | 32.8 µM (inactive) | 16.8 µM (inactive) | 27.7 µM (inactive) | 6.01 µM (inactive) | 21.8 µM (inactive) | 13.7 | 12 µM (inactive) | 18.7 µM (inactive) | 24.5 µM (inactive) |  | 33.5 µM (inactive) |
